Laboratory results published in patent publication US6624156B2, “Methods of making and method of using hybrid cholinergic agents and compositions” (Board of Trustees of the University of Arkansas, priority 2001, dated 2003).

Tests used:
M3 muscarinic receptor [1] = molecular target: T1, M3 muscarinic receptor (Rattus norvegicus, UniProt P08483); test: Acetylcholine-induced inositol phosphate (IP) formation in CHO-M3 cells; format: cell-based
T1 construct: host or cells: CHO cells
Description: Post-receptor (downstream) actions of LCC were determined by measuring increases in inositol phosphates (IP) after incubating cells with 3H-myo-inositol. CHO cell inositol 1,4,5-triphosphate (IP3) was determined by the methods of Hu and El-Fakahany (1990, Mol. Pharmacol. 38:895-903) and Labarca et al., (1987, Methods Enzymol. 141:192-201). 5×10^4 cells/well were incubated with 1.0 μCi/ml myo-[2-^3H]inositol for 24 hour at 37° C., treated with 20 mM LiCl for 30 minutes at 37° C. Cells were then incubated with the test agents for 30 minutes at 37° C. The IP3 fraction was separated by ion-exchange chromatography (AG2 X8 resin), and the dpm in this fraction were determined by liquid scintillation.
The highest LCC concentration tested (0.1 mM) reduced ACh-induced IP production by 80%, thereby confirming competition of LCC and ACh for the same receptor, indicating interaction of LCC and ACh with the same receptor. Thus, LCC is an M3 muscarinic receptor antagonist.

M3 muscarinic receptor [2] = molecular target: T1, M3 muscarinic receptor; test: Inhibition of 3H-N-methylscopolamine binding to CHO cells expressing M3 muscarinic receptors; details: for IC50: read-out: IC50 (inhibition of 3H-NMS binding), CHO cells expressing M3, 0.6 nM 3H-NMS, 45 min 37° C., mean±SE of at least three assays
Description: The objective of this experiment was to evaluate whether LCC interacted with muscarinic M3 receptors. CHO cells expressing M3 muscarinic receptors were obtained from the American Type Culture Collection (ATCC), MD. The interaction of LCC with the M3 receptors was determined by an assay which measures inhibition of ^3H-N-methylscopolamine (^3H-NMS) binding to the M3 receptor. […] Lithocholyltaurine and lithocholylglycine are physiological conjugates of lithocholic acid.
5×10^5 CHO cells (0.5 ml) were incubated for 45 minutes at 37° C. with 0.6 nM ^3H-NMS alone or with unlabeled ligand. Nonspecific binding was determined in the presence of 10.0 μM unlabeled NMS. The reaction was terminated by centrifuging 0.5 ml of cell suspension at 10,000 g for 7 minutes at room temperature. 100 μl of supernatant was sampled for determination of free ligand concentration, and the remaining liquid was carefully decanted. The cell pellet was washed, drained, and dissolved in 100 μl Soluene 350.

T1 sequence (P08483 whole entry): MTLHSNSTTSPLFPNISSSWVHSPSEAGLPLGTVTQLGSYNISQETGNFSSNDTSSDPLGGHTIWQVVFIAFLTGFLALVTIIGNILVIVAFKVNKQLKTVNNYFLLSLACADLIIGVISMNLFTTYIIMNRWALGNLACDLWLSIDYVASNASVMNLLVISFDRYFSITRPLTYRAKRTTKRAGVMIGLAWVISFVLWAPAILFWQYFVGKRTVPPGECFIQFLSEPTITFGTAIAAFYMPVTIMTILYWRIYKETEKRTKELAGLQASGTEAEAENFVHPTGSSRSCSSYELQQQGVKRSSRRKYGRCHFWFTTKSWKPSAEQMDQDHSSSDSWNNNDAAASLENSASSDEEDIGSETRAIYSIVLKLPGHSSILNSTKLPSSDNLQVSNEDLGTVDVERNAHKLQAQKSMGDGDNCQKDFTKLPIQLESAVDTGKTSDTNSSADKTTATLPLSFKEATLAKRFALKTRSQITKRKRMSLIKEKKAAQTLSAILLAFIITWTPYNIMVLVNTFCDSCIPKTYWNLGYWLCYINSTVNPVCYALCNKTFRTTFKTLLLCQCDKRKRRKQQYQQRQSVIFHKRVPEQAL

| Compound | inhibition of ACh-induced IP formation compared with equal concentrations of LCT (M3 muscarinic receptor [1]; 10.0 μM acetylcholine) | reduction of ACh-induced IP production (M3 muscarinic receptor [1]; 0.1 mM LCC, 10.0 μM acetylcholine) [%] | effect of agent alone on IP formation (M3 muscarinic receptor [1]; LCC alone) | potency relative to acetylcholine at inhibiting 3H-NMS binding (M3 muscarinic receptor [2]; LCC vs acetylcholine) | potency relative to carbachol at inhibiting 3H-NMS binding (M3 muscarinic receptor [2]; LCC vs carbachol) | IC50 (M3 muscarinic receptor [2]) [µM] |
| --- | --- | --- | --- | --- | --- | --- |
| C[C@H](CCC(=O)OCC[N+](C)(C)C)[C@H]1CC[C@H]2[C@@H]3CC[C@@H]4C[C@H](O)CC[C@]4(C)[C@H]3CC[C@]12C [LCC, lithocholylcholine] | overall greater extent | 80 | not alter IP formation | about 2 times | about 60 times | 6.4 ± 0.8 |
| C[C@H](CCC(=O)NCC(=O)O)[C@H]1CC[C@H]2[C@@H]3CC[C@@H]4C[C@H](O)CC[C@]4(C)[C@H]3CC[C@]12C [Lithocholylglycine, reference compound] |  |  |  |  |  | 228 ± 41.2 |
| C[C@H](CCC(=O)NCCS(=O)(=O)O)[C@H]1CC[C@H]2[C@@H]3CC[C@@H]4C[C@H](O)CC[C@]4(C)[C@H]3CC[C@]12C [Lithocholyltaurine, lithocholyltaurine, reference compound] |  |  |  |  |  | 165 ± 38.5 |
